Test results as given in ChEMBL document CHEMBL3860091, “Synthesis and activity of newly designed aroxyalkyl or aroxyethoxyethyl derivatives of piperazine on the cardiovascular and the central nervous systems” (Bioorg Med Chem Lett, 2016).
pKi: −log10 of the molar value.

Columns and labels:
[1] = biological target: T1, Adrenergic receptor alpha-1 (Rattus norvegicus, UniProt P15823+P23944+P43140); test: Displacement of [3H]prazosin from alpha1 adrenergic receptor in rat brain cerebral cortex after 30 mins by microbeta scintillation counting method; assay type: tissue-based
T1 sequence (P15823 whole entry): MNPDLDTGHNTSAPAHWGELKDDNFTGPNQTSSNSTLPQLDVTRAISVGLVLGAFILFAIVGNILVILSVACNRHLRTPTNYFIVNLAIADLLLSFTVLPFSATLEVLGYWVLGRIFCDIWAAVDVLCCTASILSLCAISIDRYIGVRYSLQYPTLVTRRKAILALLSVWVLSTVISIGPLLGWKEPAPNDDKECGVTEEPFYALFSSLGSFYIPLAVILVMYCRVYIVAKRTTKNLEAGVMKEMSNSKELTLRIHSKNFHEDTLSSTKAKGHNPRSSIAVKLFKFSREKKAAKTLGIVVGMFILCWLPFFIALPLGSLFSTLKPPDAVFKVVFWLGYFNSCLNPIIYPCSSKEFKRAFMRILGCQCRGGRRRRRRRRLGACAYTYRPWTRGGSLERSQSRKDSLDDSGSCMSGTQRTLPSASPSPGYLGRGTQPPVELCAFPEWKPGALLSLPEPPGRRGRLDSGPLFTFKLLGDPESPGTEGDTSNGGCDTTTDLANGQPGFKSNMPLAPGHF
T1 sequence (P23944 whole entry): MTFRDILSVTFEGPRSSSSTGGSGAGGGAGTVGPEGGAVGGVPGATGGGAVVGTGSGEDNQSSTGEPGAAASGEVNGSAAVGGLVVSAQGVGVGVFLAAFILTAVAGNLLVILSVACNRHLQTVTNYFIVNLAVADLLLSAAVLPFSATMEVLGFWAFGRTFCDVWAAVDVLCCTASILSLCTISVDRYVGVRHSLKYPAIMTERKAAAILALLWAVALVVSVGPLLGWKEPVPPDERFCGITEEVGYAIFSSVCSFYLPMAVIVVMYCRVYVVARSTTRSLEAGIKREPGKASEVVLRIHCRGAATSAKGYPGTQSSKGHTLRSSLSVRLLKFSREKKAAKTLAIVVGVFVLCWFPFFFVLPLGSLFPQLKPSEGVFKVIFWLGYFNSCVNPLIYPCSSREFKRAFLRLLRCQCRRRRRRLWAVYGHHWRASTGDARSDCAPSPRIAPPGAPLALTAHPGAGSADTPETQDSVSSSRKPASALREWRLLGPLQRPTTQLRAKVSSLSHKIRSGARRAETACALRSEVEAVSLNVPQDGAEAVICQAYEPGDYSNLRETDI
T1 sequence (P43140 whole entry): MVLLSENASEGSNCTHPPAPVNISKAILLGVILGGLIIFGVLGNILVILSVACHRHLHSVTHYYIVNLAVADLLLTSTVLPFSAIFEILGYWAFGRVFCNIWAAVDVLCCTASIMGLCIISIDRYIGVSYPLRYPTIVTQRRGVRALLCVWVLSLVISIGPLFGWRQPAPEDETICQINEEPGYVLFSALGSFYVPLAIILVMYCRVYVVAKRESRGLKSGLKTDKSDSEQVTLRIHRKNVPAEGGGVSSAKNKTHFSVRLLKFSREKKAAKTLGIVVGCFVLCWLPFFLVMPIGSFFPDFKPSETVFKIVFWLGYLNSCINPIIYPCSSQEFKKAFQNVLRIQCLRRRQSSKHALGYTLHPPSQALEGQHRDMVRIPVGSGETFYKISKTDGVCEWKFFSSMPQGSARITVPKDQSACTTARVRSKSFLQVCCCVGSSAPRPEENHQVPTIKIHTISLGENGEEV

[2] = biological target: T2, 5-hydroxytryptamine receptor 1A (Homo sapiens, UniProt P08908); test: Displacement of [3H]8-OH-DPAT from human recombinant 5-HT1A receptor expressed in membranes after 60 mins by microbeta scintillation counting method
T2 sequence (P08908 whole entry): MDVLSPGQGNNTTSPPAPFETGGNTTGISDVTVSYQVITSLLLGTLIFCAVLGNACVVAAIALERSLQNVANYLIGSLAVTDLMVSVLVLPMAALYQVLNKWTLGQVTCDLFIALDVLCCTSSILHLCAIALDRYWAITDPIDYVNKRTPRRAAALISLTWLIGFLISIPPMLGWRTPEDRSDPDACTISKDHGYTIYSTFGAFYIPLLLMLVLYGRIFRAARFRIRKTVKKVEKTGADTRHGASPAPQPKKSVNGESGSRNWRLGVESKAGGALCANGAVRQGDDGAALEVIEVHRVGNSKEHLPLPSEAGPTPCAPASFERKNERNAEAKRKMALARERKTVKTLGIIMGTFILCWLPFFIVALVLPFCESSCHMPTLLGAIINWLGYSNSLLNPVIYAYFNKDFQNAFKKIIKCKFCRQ

[3] = tested on: Rattus norvegicus; test: Hypotensive activity in normotensive anesthetized Wistar rat assessed as diastolic blood pressure at 1 mg/kg, iv measured 5 mins post dose (reference value: 81.6 to 115.2 mmHg); assay type: functional
[4] = tested on: Rattus norvegicus; test: Hypotensive activity in normotensive anesthetized Wistar rat assessed as systolic blood pressure at 1 mg/kg, iv measured 10 mins post dose (reference value: 107.4 to 148.3 mmHg); assay type: functional
[5] = tested on: Rattus norvegicus; test: Hypotensive activity in normotensive anesthetized Wistar rat assessed as diastolic blood pressure at 1 mg/kg, iv measured 10 mins post dose (reference value: 81.6 to 115.2 mmHg); assay type: functional
[6] = tested on: Rattus norvegicus; test: Hypotensive activity in normotensive anesthetized Wistar rat assessed as systolic blood pressure at 1 mg/kg, iv measured 20 mins post dose (reference value: 107.4 to 148.3 mmHg); assay type: functional
[7] = tested on: Rattus norvegicus; test: Hypotensive activity in normotensive anesthetized Wistar rat assessed as diastolic blood pressure at 1 mg/kg, iv measured 20 mins post dose (reference value: 81.6 to 115.2 mmHg); assay type: functional
[8] = tested on: Rattus norvegicus; test: Hypotensive activity in normotensive anesthetized Wistar rat assessed as diastolic blood pressure at 1 mg/kg, iv measured 30 mins post dose (reference value: 81.6 to 115.2 mmHg); assay type: functional
[9] = tested on: Rattus norvegicus; test: Hypotensive activity in normotensive anesthetized Wistar rat assessed as systolic blood pressure at 1 mg/kg, iv measured 60 mins post dose (reference value: 107.4 to 148.3 mmHg); assay type: functional
[10] = tested on: Rattus norvegicus; test: Hypotensive activity in normotensive anesthetized Wistar rat assessed as diastolic blood pressure at 1 mg/kg, iv measured 60 mins post dose (reference value: 81.6 to 115.2 mmHg); assay type: functional
[11] = tested on: Rattus norvegicus; test: Hypotensive activity in normotensive anesthetized Wistar rat assessed as systolic blood pressure at 0.5 mg/kg, iv measured 5 mins post dose (reference value: 107.4 to 148.3 mmHg); assay type: functional
[12] = tested on: Rattus norvegicus; test: Hypotensive activity in normotensive anesthetized Wistar rat assessed as diastolic blood pressure at 0.5 mg/kg, iv measured 30 mins post dose (reference value: 81.6 to 115.2 mmHg); assay type: functional
[13] = tested on: Rattus norvegicus; test: Hypotensive activity in normotensive anesthetized Wistar rat assessed as diastolic blood pressure at 0.5 mg/kg, iv measured 60 mins post dose (reference value: 81.6 to 115.2 mmHg); assay type: functional
[14] = Antidepressant-like activity in albino Swiss (CD-1) mouse assessed as immobility time at 5 mg/kg, ip administered 30 mins prior to test measured for last 4 mins of 6 mins observation by forced swim test (reference value: 178.3 +/- 12.3 sec); assay type: functional, organism-based

Structure (SMILES) | Ki [1] | pKi [2] | Activity [3] | Activity [4] | Activity [5] | Activity [6] | Activity [7] | Activity [8] | Activity [9] | Activity [10] | Activity [11] | Activity [12] | Activity [13] | TIME [14]
Cc1cccc(OCCN2CCN(c3ccccc3)CC2)c1C.Cl.Cl | 159 nM | 7.91 | 75.2 mmHg | 97.2 mmHg | 75 mmHg | 96 mmHg | 71.8 mmHg | 67.6 mmHg | 93.4 mmHg | 67.6 mmHg | – | – | – | –
COc1ccccc1N1CCN(CCCCOc2c(C)cccc2C)CC1.Cl | 23.5 nM | 8.70 | 109.8 mmHg | 126.2 mmHg | 105.2 mmHg | 124.3 mmHg | 103 mmHg | 102 mmHg | 124.7 mmHg | 103.8 mmHg | 124.2 mmHg | 98.8 mmHg | 94.3 mmHg | –

More lines, main results first:

Ki [1] | pKi [2] | Structure (SMILES) | Activity [3] | Activity [4] | Activity [5] | Activity [6] | Activity [7] | Activity [8] | Activity [9] | Activity [10] | Activity [11] | Activity [12] | Activity [13] | TIME [14]
33 nM | 8.27 | Cc1cccc(OCCCN2CCN(c3ccccc3)CC2)c1C.Cl.Cl | 111.8 mmHg | 138 mmHg | 112.8 mmHg | 138 mmHg | 110.8 mmHg | 109 mmHg | 133.3 mmHg | 109.7 mmHg | – | – | – | –
59.6 nM | 8.40 | Cc1cccc(Cl)c1OCCCCN1CCN(c2ccccc2)CC1.Cl.Cl | 103.7 mmHg | 127.7 mmHg | 102.2 mmHg | 126.2 mmHg | 98.8 mmHg | 97.7 mmHg | 120 mmHg | 95.2 mmHg | 135 mmHg | 101.5 mmHg | 97 mmHg | 0.0416 h
28.5 nM | 8.30 | COc1ccccc1N1CCN(CCOCCOc2cccc(C)c2C)CC1.Cl.Cl | 105 mmHg | 131 mmHg | 106 mmHg | 130.4 mmHg | 105.4 mmHg | 105.6 mmHg | 132.6 mmHg | 104 mmHg | – | – | – | 0.0339 h
